Results reported in patent publication US10538497B2, “Compounds as indoleamine 2,3-dioxygenase inhibitors” (Merck Sharp & Dohme Corp., priority 2015, dated 2020).

Columns and labels:
IDO1 [1] = target: T1, IDO1 (Homo sapiens (Human), UniProt P14902); experiment: IDO1 Cellular Assay in Hela Cells Stimulated with IFNγ; type: cell-based; details: Hela cells stimulated with IFNγ 100 ng/mL; read-out: IDO1 HELA Cell Assay, IC50
Protocol: IDO1 Cellular Assay in Hela Cells Stimulated with IFNγ
Hela cells were cultured in complete Hela culture medium (90% EMEM, 10% heat-inactivated fetal bovine serum) and expanded to about 1×10^9 cells. The cells were then collected and frozen down at 10×10^6 cells/vial in 1 mL frozen medium (90% complete Hela culture medium, 10% DMSO)
Frozen Hela cells were thawed and transferred into Hela assay medium (99% complete Hela culture medium, 1% Pen/Strep) with 20 mL medium/vial of cells. The cells were spun down at 250 g in a table top centrifuge for 5 min and suspended in same volume of Hela assay medium. The cells were then counted and adjusted to a density of 2×10^5 cells/ml in Hela assay medium. Sterile L-tryptophan were added to the cells with final concentration of 300 uM L-tryptophan. A small aliquot (2 mL/plate) of Hela cells were set aside and were not treated with IFNγ, to serve as the Max-E control. The rest of Hela cells were added with sterile IFNγ (Cat #285-IF, R & D systems) with a final concentration of 100 ng/mL.
(§1) Hela cells with and without IFNγ were dispensed to the respective wells of 384-well assay plates containing the compounds. The plates were incubated for about 48 hours at a 37° C., 5% CO2 incubator. […] The plates were centrifuged for 1 min at 200×g. The resulting fluorescence was measured in a Spectramax plate reader (Molecular Devices) with a 400 nm excitation filter and a 510 nm emission filter.

IDO1 [2] = target: T1, IDO1; experiment: IDO1 Cellular Assay in Frozen HEK293 Cells Transiently Transfected with Human IDO1; type: cell-based; details: HEK293 cells transiently transfected with human IDO1; read-out: IDO1 HEK293 Cell Assay, IC50
Protocol: IDO1 Cellular Assay in Frozen HEK293 Cells Transiently Transfected with Human IDO1
HEK293 cells were cultured in complete HEK293 culture medium (90% DMEM, 10% heat-inactivated fetal bovine serum). When reaching sub-confluent, the cells were trypsinized and neutralized with complete medium. […] Flag-IDO1 plasmid was added to the cell suspension at a concentration of 100 μg/mL. The cell-plasmid solutions were transferred to the OC-400 processing assembly (Maxcyte), 400 l/unit and the units were placed in a Maxcyte instrument to carry out flow electroporation for transfection. The cells were then transferred to a sterile 24-well cell culture plate to recover for 20-30 min at 37° C. in an incubator with 5% CO2.
Frozen HEK293/IDO1 and HEK293 WT cells were thawed and transferred into HEK293 assay medium (99% complete HEK293 culture medium, 1% Pen/Strep) with 20 mL medium/vial of cells. The cells were spun down at 250 g in a table top centrifuge for 5 min and suspended in same volume of HEK293 assay medium. […] Sterile L-tryptophan were added to the cells with final concentration of 300 μM.
as §1, with “HEK293/IDO1 and HEK293 WT” for “Hela”, “cells” for “cells with and without IFNγ”, “28-30 h” for “48 hours”

IDO1 [3] = target: T1, IDO1; experiment: IDO1 Enzyme Assay; details: HIS-tagged recombinant IDO1, 40 nM
[4] = read-out: IDO1 Enzyme Assay, IC50

T1 sequence (P14902 whole entry): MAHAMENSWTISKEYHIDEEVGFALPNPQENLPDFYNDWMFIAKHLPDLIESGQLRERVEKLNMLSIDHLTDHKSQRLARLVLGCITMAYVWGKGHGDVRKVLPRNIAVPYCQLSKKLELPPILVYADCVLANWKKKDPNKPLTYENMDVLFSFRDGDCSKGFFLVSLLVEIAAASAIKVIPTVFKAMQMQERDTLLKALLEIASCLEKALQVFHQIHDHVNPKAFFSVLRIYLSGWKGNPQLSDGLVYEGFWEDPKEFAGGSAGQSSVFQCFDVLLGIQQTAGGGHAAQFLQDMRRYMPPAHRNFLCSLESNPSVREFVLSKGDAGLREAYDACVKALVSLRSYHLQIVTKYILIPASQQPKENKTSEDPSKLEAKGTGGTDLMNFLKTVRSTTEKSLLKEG

| Compound | IC50 (IDO1 [1]) [nM] | IC50 (IDO1 [2]) [nM] | IC50 (IDO1 [3]; IDO1 Enzyme Assay, IC50, nM) [nM] | IC50 (IDO1 [3]; [4]) [nM] |
| --- | --- | --- | --- | --- |
| OCC(O)CSc1nonc1/C(=N/O)Nc1ccc(F)c(Br)c1 (single isomer, unassigned) [Example 63, N-(3-bromo-4-fluorophenyl)-4-[(2,3-dihydroxypropyl)sulfanyl]-N′-hydroxy-1,2,5-oxadiazole-3-carboximidamide] | 37.5 | 53.2 | 46.1 | – |
| OCC(O)CSc1nonc1/C(=N/O)Nc1ccc(F)c(Br)c1 (single isomer, unassigned) [Example 64, N-(3-bromo-4-fluorophenyl)-4-[(2,3-dihydroxypropyl)sulfanyl]-N′-hydroxy-1,2,5-oxadiazole-3-carboximidamide] | 44.1 | 75.9 | 49.1 | – |
| NS(=O)(=O)NCCSc1nonc1/C(=N/O)Nc1ccc(F)c(Br)c1 [Example 3, (Z)—N-(3-Bromo-4-fluorophenyl)-N′-hydroxy-4-((2-(sulfamoylamino)ethyl)thio)-1,2,5-oxadiazole-3-carboximidamide] | 72.4 | 56.9 | – | 79.5 |
| O=P(O)(O)CCSc1nonc1/C(=N/O)Nc1ccc(F)c(Br)c1 [Example 8, (Z)-(2-((4-(N-(3-Bromo-4-fluorophenyl)-N′-hydroxycarbamimidoyl)-1,2,5-oxadiazol-3-yl)thio)ethyl)phosphonic acid] | 7950 | 6360 | – | 107 |
| CC(C)OC(=O)OCOP(=O)(O)CCSc1nonc1/C(=N/O)Nc1ccc(F)c(Br)c1 [Example 9, (Z)-(((2-((4-(N-(3-bromo-4-fluorophenyl)-N′-hydroxycarbamimidoyl)-1,2,5-oxadiazol-3-yl)thio)ethyl)(hydroxy)phosphoryl)oxy)methyl isopropyl carbonate] | 5060 | 5120 | – | 197 |
| CC(C)OC(=O)OCOP(=O)(CCSc1nonc1/C(=N/O)Nc1ccc(F)c(Br)c1)OCOC(=O)OC(C)C [Example 10, (Z)-(((2-((4-(N-(3-bromo-4-fluorophenyl)-N′-hydroxycarbamimidoyl)-1,2,5-oxadiazol-3-yl)thio)ethyl)phosphoryl)bis(oxy))bis(methylene) diisopropyl bis(carbonate)] | 4160 | > 10000 | – | 136 |
| CC(=O)NCCSc1nonc1/C(=N/O)Nc1ccc(F)c(Br)c1 [Example 11, (Z)—N-(2-((4-(N-(3-Bromo-4-fluorophenyl)-N′-hydroxycarbamimidoyl)-1,2,5-oxadiazol-3-yl)thio)ethyl)acetamide] | 9.3 | 22.2 | – | 27.7 |
| CCOC(=O)CCSc1nonc1/C(=N/O)Nc1ccc(F)c(Br)c1 [Example 13, Ethyl (Z)-3-((4-(N-(3-bromo-4-fluorophenyl)-N′-hydroxycarbamimidoyl)-1,2,5-oxadiazol-3-yl)thio)propanoate] | 6120 | 4490 | – | 86.1 |
| OCCCSc1nonc1/C(=N/O)Nc1ccc(F)c(Br)c1 [Example 19, (Z)-N-(3-bromo-4-fluorophenyl)-N′-hydroxy-4-((3-hydroxypropyl)thio)-1,2,5-oxadiazole-3-carboximidamide] | 39.7 | 39.7 | – | 71.9 |
| OCCCCSc1nonc1/C(=N/O)Nc1ccc(F)c(Br)c1 [Example 20, (Z)-N-(3-bromo-4-fluorophenyl)-N′-hydroxy-4-((4-hydroxybutyl)thio)-1,2,5-oxadiazole-3-carboximidamide] | 65.3 | 56 | – | 67.7 |
| CCCSc1nonc1/C(=N/O)Nc1ccc(F)c(Br)c1 [Example 23, (Z)-N-(3-bromo-4-fluorophenyl)-N′-hydroxy-4-(propylthio)-1,2,5-oxadiazole-3-carboximidamide] | 154 | 263 | – | 187 |
| CCSc1nonc1/C(=N/O)Nc1ccc(F)c(Br)c1 [Example 24, (Z)-N-(3-bromo-4-fluorophenyl)-4-(ethylthio)-N′-hydroxy-1,2,5-oxadiazole-3-carboximidamide] | 62.8 | 133 | – | 154 |
| O/N=C(\Nc1ccc(F)c(Br)c1)c1nonc1SCC1CNC1 [Example 25, (Z)-4-((azetidin-3-ylmethyl)thio)-N-(3-bromo-4-fluorophenyl)-N′-hydroxy-1,2,5-oxadiazole-3-carboximidamide] | 150 | 152 | – | 92.2 |
| O=c1[nH]nc(CSc2nonc2/C(=N/O)Nc2ccc(F)c(Br)c2)[nH]1 [Example 34, N-(3-bromo-4-fluorophenyl)-N′-hydroxy-4-(((5-oxo-4,5-dihydro-1H-1,2,4-triazol-3-yl)methyl)thio)-1,2,5-oxadiazole-3-carboximidamide] | 40.2 | 188 | – | 64.9 |
| O=c1c(NCCSc2nsnc2/C(=N/O)Nc2ccc(F)c(Br)c2)c(NCC2CC2)c1=O [Example 210, N-(3-bromo-4-fluorophenyl)-4-{[2-({2-[(cyclopropylmethyl)amino]-3,4-dioxocyclobut-1-en-1-yl}amino)ethyl]sulfanyl}-N′-hydroxy-1,2,5-thiadiazole-3-carboximidamide] | – | 1410 | – | 166 |

Other lines, results leading:

| IC50 (IDO1 [1]) [nM] | IC50 (IDO1 [2]) [nM] | IC50 (IDO1 [3]; IDO1 Enzyme Assay, IC50, nM) [nM] | IC50 (IDO1 [3]; [4]) [nM] | Compound |
| --- | --- | --- | --- | --- |
| 77.5 | 216 | – | 48.1 | NCCSc1nonc1/C(=N/O)Nc1ccc(F)c(Br)c1 [Example 2, (Z)-2-((4-(N-(3-Bromo-4-fluorophenyl)-N′-hydroxycarbamimidoyl)-1,2,5-oxadiazol-3-yl)thio)ethan-1-aminium chloride] |
| > 10000 | > 10000 | – | 105 | O=C(O)CSc1nonc1/C(=N/O)Nc1ccc(F)c(Br)c1 [Example 15, (Z)-2-((4-(N-(3-bromo-4-fluorophenyl)-N′-hydroxycarbamimidoyl)-1,2,5-oxadiazol-3-yl)thio)acetic acid] |
| 87.9 | 64.2 | – | 58.4 | CC(O)CSc1nonc1/C(=N/O)Nc1ccc(F)c(Br)c1 (centres unmarked) [Example 18, (Z)-N-(3-bromo-4-fluorophenyl)-N′-hydroxy-4-((2-hydroxypropyl)thio)-1,2,5-oxadiazole-3-carboximidamide] |
| 242 | 524 | – | – | COC(=O)C1(Sc2nonc2/C(=N/O)Nc2ccc(F)c(Br)c2)CCC1 [Example 21, Methyl (Z)-1-((4-(N-(3-bromo-4-fluorophenyl)-N′-hydroxycarbamimidoyl)-1,2,5-oxadiazol-3-yl)thio)cyclobutane-1-carboxylate] |
| 104 | 174 | – | 74.8 | O/N=C(\Nc1ccc(F)c(Br)c1)c1nonc1SC1CNC1 [Example 26, (Z)-4-(azetidin-3-ylthio)-N-(3-bromo-4-fluorophenyl)-N′-hydroxy-1,2,5-oxadiazole-3-carboximidamide] |
| 90.8 | 103 | – | – | CNC(=O)C1(CSc2nonc2/C(=N/O)Nc2ccc(F)c(Br)c2)CC1 [Example 69, 1-[({4-[N-(3-bromo-4-fluorophenyl)-N′-hydroxycarbamimidoyl]-1,2,5-oxadiazol-3-yl}sulfanyl)methyl]-N-methylcyclopropanecarboxamide] |
| – | 1320 | – | 297 | O=c1c(NCCSc2nsnc2/C(=N/O)Nc2ccc(F)c(Br)c2)c(NC2CC2)c1=O [Example 211, N-(3-bromo-4-fluorophenyl)-4-[(2-{[2-(cyclopropylamino)-3,4-dioxocyclobut-1-en-1-yl]amino}ethyl)sulfanyl]-N′-hydroxy-1,2,5-thiadiazole-3-carboximidamide] |
